Where no end group is shown, it is not given here.
Assays:
E. coli KCTC1682 = assay type: cell-based, Escherichia coli; details: KCTC1682, 16 h
E. coli KCTC2593 = assay type: cell-based, Escherichia coli; details: KCTC2593, 16 h
E.coli KCTC2571 = assay type: cell-based, Escherichia coli; details: KCTC2571, 16 h
P. aeruginosa KCTC1637 = assay type: cell-based, Pseudomonas aeruginosa; details: KCTC1637, 16 h
P. aeruginosa KCTC2004 = assay type: cell-based, Pseudomonas aeruginosa; details: KCTC2004, 16 h
P. aeruginosa KCTC2513 = assay type: cell-based, Pseudomonas aeruginosa; details: KCTC2513, 16 h
S. typhimurium KCTC1926 = assay type: cell-based, Salmonella typhimurium; details: KCTC1926, 16 h
B. subtilis KCTC3068 = assay type: cell-based, Bacillus subtilis; details: KCTC3068, 16 h
B. subtilis KCTC1021 = assay type: cell-based, Bacillus subtilis; details: KCTC1021, 16 h
B. subtilis KCTC1022 = assay type: cell-based, Bacillus subtilis; details: KCTC1022, 16 h
S. epidermidis KCTC1917 = assay type: cell-based, Staphylococcus epidermidis; details: KCTC1917, 16 h
S. aureus KCTC1621 = assay type: cell-based, Staphylococcus aureus; details: KCTC1621, 16 h
S. aureus KCTC1916 = assay type: cell-based, Staphylococcus aureus; details: KCTC1916, 16 h
S. aureus KCTC3881 = assay type: cell-based, Staphylococcus aureus; details: KCTC3881, 16 h
MRSA CCARM3089 = assay type: cell-based, Methicillin-resistant S. aureus; details: CCARM3089, 16 h
MRSA CCARM 3090 = assay type: cell-based, Methicillin-resistant S. aureus; details: CCARM 3090, 16 h
MRSA CCARM 3108 = assay type: cell-based, Methicillin-resistant S. aureus; details: CCARM 3108, 16 h
MRSA CCARM 3114 = assay type: cell-based, Methicillin-resistant S. aureus; details: CCARM 3114, 16 h
MRSA CCARM 3126 = assay type: cell-based, Methicillin-resistant S. aureus; details: CCARM 3126, 16 h
MDRST CCARM 8003 = assay type: cell-based, multidrug-resistant S. typhimurium; details: broth microdilution, 37°C, 16 h, three independent experiments in triplicate, SD 14.0%
MDRST CCARM 8007 = assay type: cell-based, multidrug-resistant S. typhimurium; details: broth microdilution, 37°C, 16 h, three independent experiments in triplicate, SD 14.0%
MDRST CCARM 8009 = assay type: cell-based, multidrug-resistant S. typhimurium; details: broth microdilution, 37°C, 16 h, three independent experiments in triplicate, SD 14.0%
MDREC CCARM 1229 = assay type: cell-based, multidrug-resistant E. coli; details: broth microdilution, 37°C, 16 h, three independent experiments in triplicate, SD 14.0%
MDREC CCARM 1238 = assay type: cell-based, multidrug-resistant E. coli; details: broth microdilution, 37°C, 16 h, three independent experiments in triplicate, SD 14.0%
MDRAB CCARM 12005 = assay type: cell-based, multidrug-resistant Acinetobacter baumanii; details: broth microdilution, 37°C, 16 h, three independent experiments in triplicate, SD 14.0%
MDRAB CCARM 12035 = assay type: cell-based, multidrug-resistant Acinetobacter baumanii; details: broth microdilution, 37°C, 16 h, three independent experiments in triplicate, SD 14.0%
MDRAB CCARM 12036 = assay type: cell-based, multidrug-resistant Acinetobacter baumanii; details: broth microdilution, 37°C, 16 h, three independent experiments in triplicate, SD 14.0%
MDRAB CCARM 12037 = assay type: cell-based, multidrug-resistant Acinetobacter baumanii; details: broth microdilution, 37°C, 16 h, three independent experiments in triplicate, SD 14.0%
MDRPA CCARM 2002 = assay type: cell-based, multidrug-resistant P. aeruginosa; details: broth microdilution, 37°C, 16 h, three independent experiments in triplicate, SD 14.0%
MDRPA CCARM 2003 = assay type: cell-based, multidrug-resistant P. aeruginosa; details: broth microdilution, 37°C, 16 h, three independent experiments in triplicate, SD 14.0%
MDRPA CCARM 2095 = assay type: cell-based, multidrug-resistant P. aeruginosa; details: broth microdilution, 37°C, 16 h, three independent experiments in triplicate, SD 14.0%
MDRPA CCARM 2163 = assay type: cell-based, multidrug-resistant P. aeruginosa; details: broth microdilution, 37°C, 16 h, three independent experiments in triplicate, SD 14.0%
[1] = tested on: Standard bacterial strains; assay type: cell-based; details: average over the 14 standard bacterial strains of Table 2
[2] = tested on: Drug-resistant bacterial strains; details: average over the 18 drug-resistant bacterial strains of Table 3
Excerpt: Escherichia coli KCTC 1682, E. coli KCTC 2593, E. coli KCTC 2571, Salmonella typhimurium KCTC 1926, Pseudomonas aeruginosa KCTC 1637, P. aeruginosa KCTC 2004, P. aeruginosa KCTC 2513, Bacillus subtilis KCTC 3068, B. subtilis KCTC 1021, B. subtilis KCTC 1022, Staphylococcus epidermidis KCTC 1917, Staphylococcus aureus KCTC 1621, S. aureus KCTC 1916, and S. aureus KCTC 3881 were purchased from the Korean Collection for Type Cultures, Korea Research Institute of Bioscience & Biotechnology (Taejon, Korea). Methicillin-resistant S. aureus (MRSA) (CCARM 3089, CCARM 3090, CCARM 3108, CCARM 3114, and CCARM 3126), multidrug-resistant E. coli (MDREC) (CCARM 1229 and CCARM 1238), multidrug-resistant S. typhimurium (MDRST) (CCARM 8003, CCARM 8007, and CCARM 8009), multidrug-resistant Acinetobacter baumanii (MDRAB) (CCARM 12005, CCARM 12035, CCARM 12036, CCARM 12037), and multidrug-resistant P. aeruginosa (MDRPA) (CCARM 2002, CCARM 2003, CCARM 2095, and CCARM 2163) were obtained from the Culture Collection of Antibiotic-Resistant Microbes (CCARM) at Seoul Women’s University in Korea. The antimicrobial activities of the peptides against selected organisms, including three Gram-positive, three Gram-negative, and five antibiotic-resistant bacteria, were determined using a broth microdilution assay. Briefly, single colonies of bacteria and fungi were inoculated into Luria-Bertani (LB) medium and cultured overnight at 37°C. An aliquot of the culture was transferred to 10 mL of fresh LB and incubated for an additional 3–5 h at 37°C until it reached the mid-logarithmic phase. Two-fold serial dilutions of the peptides in 1% peptone were prepared. The serial dilutions (100 µL) were added to 100 µL of cells (2×10^6 colony-forming units (CFU)/mL) in 96-well microtiter plates and incubated at 37°C for 16 h. […] MIC values were calculated as the average of triplicate measurements from three independent assays.

| Sequence | MIC (E. coli KCTC1682) | MIC (E. coli KCTC2593) | MIC (E.coli KCTC2571) | MIC (P. aeruginosa KCTC1637) | MIC (P. aeruginosa KCTC2004) | MIC (P. aeruginosa KCTC2513) | MIC (S. typhimurium KCTC1926) | MIC (B. subtilis KCTC3068) | MIC (B. subtilis KCTC1021) | MIC (B. subtilis KCTC1022) | MIC (S. epidermidis KCTC1917) | MIC (S. aureus KCTC1621) | MIC (S. aureus KCTC1916) | MIC (S. aureus KCTC3881) | MIC (MRSA CCARM3089) | MIC (MRSA CCARM 3090) | MIC (MRSA CCARM 3108) | MIC (MRSA CCARM 3114) | MIC (MRSA CCARM 3126) | MIC (MDRST CCARM 8003) | further results |
| --- | --- | --- | --- | --- | --- | --- | --- | --- | --- | --- | --- | --- | --- | --- | --- | --- | --- | --- | --- | --- | --- |
| KFHHIFRGIVHVGKTIHRLVTG [Pis-F1K] | 4.0 µM | 2.0 µM | 2.0 µM | 4.0 µM | 4.0 µM | 4.0 µM | 4.0 µM | 2.0 µM | 2.0 µM | 1.0 µM | 2.0 µM | 2.0 µM | 2.0 µM | 2.0 µM | 8.0 µM | 8.0 µM | 8.0 µM | 8.0 µM | 8.0 µM | 4.0 µM | MIC (MDRST CCARM 8007): 4.0 µM; MIC (MDRST CCARM 8009): 4.0 µM; MIC (MDREC CCARM 1229): 8.0 µM; MIC (MDREC CCARM 1238): 8.0 µM; MIC (MDRAB CCARM 12005): 2.0 µM; MIC (MDRAB CCARM 12035): 2.0 µM; MIC (MDRAB CCARM 12036): 2.0 µM; MIC (MDRAB CCARM 12037): 2.0 µM; MIC (MDRPA CCARM 2002): 2.0 µM; MIC (MDRPA CCARM 2003): 2.0 µM; MIC (MDRPA CCARM 2095): 2.0 µM; MIC (MDRPA CCARM 2163): 2.0 µM; Average MIC [1]: 2.6 µM; Average MIC [2]: 4.7 µM |
| KFHHIFRGIKHVGKTIHRLVTG [Pis-F1K/V10K] | 1.0 µM | 2.0 µM | 2.0 µM | 1.0 µM | 2.0 µM | 2.0 µM | 1.0 µM | 1.0 µM | 4.0 µM | 2.0 µM | 1.0 µM | 2.0 µM | 2.0 µM | 2.0 µM | 4.0 µM | 4.0 µM | 4.0 µM | 8.0 µM | 4.0 µM | 8.0 µM | MIC (MDRST CCARM 8007): 8.0 µM; MIC (MDRST CCARM 8009): 8.0 µM; MIC (MDREC CCARM 1229): 4.0 µM; MIC (MDREC CCARM 1238): 4.0 µM; MIC (MDRAB CCARM 12005): 2.0 µM; MIC (MDRAB CCARM 12035): 2.0 µM; MIC (MDRAB CCARM 12036): 2.0 µM; MIC (MDRAB CCARM 12037): 2.0 µM; MIC (MDRPA CCARM 2002): 2.0 µM; MIC (MDRPA CCARM 2003): 2.0 µM; MIC (MDRPA CCARM 2095): 2.0 µM; MIC (MDRPA CCARM 2163): 2.0 µM; Average MIC [1]: 1.8 µM; Average MIC [2]: 4.0 µM |
